15 compounds from patent US10259810B2, “N-sulfonylated pyrazolo[3,4-b]pyridin-6-carboxamides and method of use” (AbbVie S.à.r.l., priority 2015, dated 2019) can be followed below.

Test [1] concerns the target T1, ΔF508-CFTR (Homo sapiens, UniProt P13569, DEL508-508).
T1 construct: host or cells: CFBE41o-, doxycycline-inducible
In words: CFTR cell surface levels using HRP-tagged ΔF508-CFTR expressing CFBE cells, in the presence of a co-corrector. The class given is cell-based. The note with it: HRP-tagged ΔF508-CFTR CFBE cells, in the presence of 3 μM co-corrector; for EC50: read-out: EC50. The gist of the method: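 Chemiluminescent read-out of surface HRP (15 min, dark) after PBS washes. Activity is normalized as 100×(sample−DMSO)/(3 μM co-corrector alone−DMSO).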

In test [2] the target is T1, ΔF508-CFTR. The test is described as follows: CFTR cell surface levels using HRP-tagged ΔF508-CFTR expressing CFBE cells, intrinsic corrector capacity. Type of test: cell-based. Also on record: % Activation: concentration or dose not given beside the values. The note with it: HRP-tagged ΔF508-CFTR expressing CFBE41o- cells, compound alone (intrinsic corrector capacity), 20 hours at 33° C.; for EC50: read-out: EC50. The gist of the method: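 Read-out: chemiluminescent HRP activity of ECL4-HRP-tagged ΔF508-CFTR at the cell surface, 15 min substrate in dark. Normalized as 100×(sample−DMSO)/(positive control−DMSO).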

Molecules are shown by their SMILES.

T1 sequence (P13569 with tags, fused parts or gaps DEL508-508): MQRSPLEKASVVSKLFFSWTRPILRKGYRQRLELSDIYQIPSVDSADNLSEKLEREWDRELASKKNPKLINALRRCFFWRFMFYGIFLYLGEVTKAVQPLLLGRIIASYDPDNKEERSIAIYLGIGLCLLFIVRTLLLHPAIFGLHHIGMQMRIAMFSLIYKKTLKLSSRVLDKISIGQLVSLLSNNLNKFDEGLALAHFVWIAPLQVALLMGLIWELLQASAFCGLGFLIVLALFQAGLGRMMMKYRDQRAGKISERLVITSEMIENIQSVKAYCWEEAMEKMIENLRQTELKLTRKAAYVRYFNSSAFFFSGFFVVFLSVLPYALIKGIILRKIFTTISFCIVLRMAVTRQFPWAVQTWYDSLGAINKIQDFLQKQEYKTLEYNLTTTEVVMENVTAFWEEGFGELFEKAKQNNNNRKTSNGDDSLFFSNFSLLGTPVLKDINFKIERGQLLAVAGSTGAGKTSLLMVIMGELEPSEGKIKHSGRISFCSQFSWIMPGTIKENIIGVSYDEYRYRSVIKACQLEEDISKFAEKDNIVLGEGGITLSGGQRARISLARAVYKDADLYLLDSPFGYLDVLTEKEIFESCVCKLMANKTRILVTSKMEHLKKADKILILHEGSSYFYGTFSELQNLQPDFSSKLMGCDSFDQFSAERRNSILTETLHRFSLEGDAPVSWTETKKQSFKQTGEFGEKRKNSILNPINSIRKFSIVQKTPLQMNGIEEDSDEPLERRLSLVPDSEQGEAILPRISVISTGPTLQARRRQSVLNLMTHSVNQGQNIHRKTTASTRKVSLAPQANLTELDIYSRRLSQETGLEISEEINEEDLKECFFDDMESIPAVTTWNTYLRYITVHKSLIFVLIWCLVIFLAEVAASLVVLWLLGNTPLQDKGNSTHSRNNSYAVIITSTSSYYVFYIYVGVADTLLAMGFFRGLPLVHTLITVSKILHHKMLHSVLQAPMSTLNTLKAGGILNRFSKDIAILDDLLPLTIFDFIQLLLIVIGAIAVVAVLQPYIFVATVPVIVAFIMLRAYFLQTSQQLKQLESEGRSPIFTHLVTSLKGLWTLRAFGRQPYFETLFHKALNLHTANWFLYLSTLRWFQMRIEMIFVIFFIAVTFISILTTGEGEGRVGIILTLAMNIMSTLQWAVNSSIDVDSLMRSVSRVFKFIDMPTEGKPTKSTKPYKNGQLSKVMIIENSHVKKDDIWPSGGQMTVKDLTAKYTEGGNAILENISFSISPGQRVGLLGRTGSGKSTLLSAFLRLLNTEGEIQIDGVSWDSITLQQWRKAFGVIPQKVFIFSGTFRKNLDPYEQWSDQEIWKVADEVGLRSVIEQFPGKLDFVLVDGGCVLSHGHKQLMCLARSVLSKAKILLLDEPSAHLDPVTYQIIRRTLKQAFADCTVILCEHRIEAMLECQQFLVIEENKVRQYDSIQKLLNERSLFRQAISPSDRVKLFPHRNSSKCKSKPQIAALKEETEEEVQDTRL

One may read the EC50 as the midpoint of the concentration-response curve. For `CC(C)c1nn(-c2ccc(F)cc2)c2nc(C(=O)NS(C)(=O)=O)cc(OCCC3CCOCC3)c12` [Compound 285, 1-(4-fluorophenyl)-N-(methanesulfonyl)-4-[2-(oxan-4-yl)ethoxy]-3-(propan-2-yl)-1H-pyrazolo[3,4-b]pyridine-6-carboxamide], in test [1], the “% Activation” value stood at 327.57% and the EC50 is 246 nM. Further, in test [2], the “% Activation” value is listed as 125.5% and the EC50 worked out at 294 nM.
Take `COCC1CCN(c2cc(C(=O)NS(=O)(=O)c3cn(C)cn3)nc3c2c(C2CCC2)nn3-c2ccccc2)CC1` [Compound 286, 3-cyclobutyl-4-[4-(methoxymethyl)piperidin-1-yl]-N-(1-methyl-1H-imidazole-4-sulfonyl)-1-phenyl-1H-pyrazolo[3,4-b]pyridine-6-carboxamide]: in test [1], the “% Activation” value came out at 500.55% and the EC50 was found to be 159 nM. In test [2], the “% Activation” value is given as 264% and the EC50 worked out at 327 nM.
Taken in the same sequence, the figures for `COCC1CCN(c2cc(C(=O)NS(=O)(=O)c3c(C)noc3C)nc3c2c(C2CCC2)nn3-c2ccccc2)CC1` [Compound 287, 3-cyclobutyl-N-(3,5-dimethyl-1,2-oxazole-4-sulfonyl)-4-[4-(methoxymethyl)piperidin-1-yl]-1-phenyl-1H-pyrazolo[3,4-b]pyridine-6-carboxamide] were 450.9%, 128 nM, 204.9% and 183 nM.
As to `COCC1CCN(c2cc(C(=O)NS(=O)(=O)CCCN(C)C)nc3c2c(C(C)C)nn3-c2ccc(F)cc2)CC1` [Compound 290, N-[3-(dimethylamino)propane-1-sulfonyl]-1-(4-fluorophenyl)-4-[4-(methoxymethyl)piperidin-1-yl]-3-(propan-2-yl)-1H-pyrazolo[3,4-b]pyridine-6-carboxamide], in test [1], the “% Activation” value was 382.2% and the EC50 was determined as 536 nM. In test [2], the “% Activation” value is listed as 200.4% and the EC50 was determined as 617 nM.
In the same order, the values of `CC(C)c1nn(-c2ccc(F)cc2)c2nc(C(=O)NS(C)(=O)=O)cc(OCCCN3CCOCC3)c12` [Compound 292, 1-(4-fluorophenyl)-N-(methanesulfonyl)-4-[3-(morpholin-4-yl)propoxy]-3-(propan-2-yl)-1H-pyrazolo[3,4-b]pyridine-6-carboxamide] are 422.55%, 565 nM, 217.9% and 1060 nM.
As for `CC(C)c1nn(-c2ccc(F)cc2)c2nc(C(=O)NS(C)(=O)=O)cc(OCC3(C)COC3)c12` [Compound 293, 1-(4-fluorophenyl)-N-(methanesulfonyl)-4-[(3-methyloxetan-3-yl)methoxy]-3-(propan-2-yl)-1H-pyrazolo[3,4-b]pyridine-6-carboxamide], in test [1], the “% Activation” value is 317.1% and the EC50 was 480 nM. Besides, in test [2], the “% Activation” value was found to be 113.3% and the EC50 came to 622 nM.
Taken in the same sequence, the figures for `CC(C)c1nn(-c2ccc(F)cc2)c2nc(C(=O)NS(C)(=O)=O)cc(OCC3CCCO3)c12` (stereo not drawn) [Compound 295, 1-(4-fluorophenyl)-N-(methanesulfonyl)-4-[(oxolan-2-yl)methoxy]-3-(propan-2-yl)-1H-pyrazolo[3,4-b]pyridine-6-carboxamide] were 298.07%, 697 nM, 129.6% and 1050 nM.
Taken in the same sequence, the figures for `CC(=O)N1CCC(COc2cc(C(=O)NS(C)(=O)=O)nc3c2c(C2CCC2)nn3-c2ccccc2)CC1` [Compound 296, 4-[(1-acetylpiperidin-4-yl)methoxy]-3-cyclobutyl-N-(methanesulfonyl)-1-phenyl-1H-pyrazolo[3,4-b]pyridine-6-carboxamide] were 329.13%, 168 nM, 154.7% and 396 nM.
Turning to `COCC1CCN(c2cc(C(=O)NS(=O)(=O)CCC(=O)N(C)C)nc3c2c(C2CCC2)nn3-c2ccccc2)CC1` [Compound 298, 3-cyclobutyl-N-[3-(dimethylamino)-3-oxopropane-1-sulfonyl]-4-[4-(methoxymethyl)piperidin-1-yl]-1-phenyl-1H-pyrazolo[3,4-b]pyridine-6-carboxamide], in test [1], the “% Activation” value is 481.2% and the half-maximal effective concentration (EC50) was determined as 81 nM. For the same compound, in test [2], the “% Activation” value stood at 312.9% and the EC50 is 282 nM.
Take `CC(C)c1nn(-c2ccc(F)cc2)c2nc(C(=O)NS(C)(=O)=O)cc(OCCCN(C)C)c12` [Compound 299, 4-[3-(dimethylamino)propoxy]-1-(4-fluorophenyl)-N-(methanesulfonyl)-3-(propan-2-yl)-1H-pyrazolo[3,4-b]pyridine-6-carboxamide]: in test [1], the “% Activation” value stood at 267.2% and the EC50 is 2510 nM. Also, in test [2], the “% Activation” value worked out at 81.41% and the EC50 was 3330 nM.
On to `CS(=O)(=O)NC(=O)c1cc(-c2ccc(N3CCC(C#N)CC3)nc2)c2c(OC3COC3)nn(-c3ccccc3)c2n1` [Compound 300, 4-[6-(4-cyanopiperidin-1-yl)pyridin-3-yl]-N-(methanesulfonyl)-3-[(oxetan-3-yl)oxy]-1-phenyl-1H-pyrazolo[3,4-b]pyridine-6-carboxamide], for which the “% Activation” value in test [1] is reported as 266.55%; in test [2] it was 119.9%. Moreover, the EC50 came to 109 nM in test [1] and 309 nM in test [2].
Taken in the same sequence, the figures for `CN(C)CCCOc1cc(C(=O)NS(C)(=O)=O)nc2c1c(C1CCC1)nn2-c1ccccc1` [Compound 303, 3-cyclobutyl-4-[3-(dimethylamino)propoxy]-N-(methanesulfonyl)-1-phenyl-1H-pyrazolo[3,4-b]pyridine-6-carboxamide] were 339.95%, 149.9%, 834 nM and 3330 nM.
In the same order, the values of `CC(C)c1nn(-c2ccc(F)cc2)c2nc(C(=O)NS(C)(=O)=O)cc(OCC3(C)CC(F)(F)C3)c12` [Compound 306, 4-[(3,3-difluoro-1-methylcyclobutyl)methoxy]-1-(4-fluorophenyl)-N-(methanesulfonyl)-3-(propan-2-yl)-1H-pyrazolo[3,4-b]pyridine-6-carboxamide] are 321.1%, 146.7%, 82.4 nM and 158 nM.
Take `CC(C)c1nn(-c2ccc(F)cc2)c2nc(C(=O)NS(C)(=O)=O)cc(OCCCN3CCCCC3)c12` [Compound 307, 1-(4-fluorophenyl)-N-(methanesulfonyl)-4-[3-(piperidin-1-yl)propoxy]-3-(propan-2-yl)-1H-pyrazolo[3,4-b]pyridine-6-carboxamide]: in test [1], the “% Activation” value turned out to be 299.25% and the EC50 was 1280 nM. In test [2], the “% Activation” value is on record as 172.7% and the EC50 stood at 3330 nM.
In the same order, the values of `CC(C)c1nn(-c2ccc(F)cc2)c2nc(C(=O)NS(C)(=O)=O)cc(OCCN(C(C)C)C3COC3)c12` [Compound 309, 1-(4-fluorophenyl)-N-(methanesulfonyl)-4-{2-[(oxetan-3-yl)(propan-2-yl)amino]ethoxy}-3-(propan-2-yl)-1H-pyrazolo[3,4-b]pyridine-6-carboxamide] are 303.6%, 224 nM, 149% and 444 nM.
